Patent US9492471B2, “Methods of treating a disease or disorder associated with Bruton'S Tyrosine Kinase” (Celgene Avilomics Research, Inc., priority 2013, dated 2016)
Where two headings read alike, the source gives them in different places.

Assays:
Assay in all cases: HotSpot kinase profiling
Assay type in all cases: biochemical
AKT1 = target: T1, AKT1 (Homo sapiens, UniProt P31749)
T1 construct: purchased Reaction Biology Corp
Summary of the method: (§1)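 Radio-isotope P81 filtration format. Substrate + required cofactors in reaction buffer, kinase added, 2 h RT. Stop, wash with 0.1% phosphoric acid, detect. % inhibition vs DMSO; mean of duplicates where repeated.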

CDK1/cyclin B = target: T2, CDK1/cyclin B (Homo sapiens, UniProt P06493)
T2 construct: purchased Reaction Biology Corp
Summary of the method: as §1

COT1/MAP3K8 = target: T3, COT1/MAP3K8 (Homo sapiens, UniProt P41279)
T3 construct: purchased Reaction Biology Corp
Summary of the method: as §1

DYRK4 = target: T4, DYRK4 (Homo sapiens, UniProt Q9NR20)
T4 construct: purchased Reaction Biology Corp
T4 sequence (Q9NR20 1-520): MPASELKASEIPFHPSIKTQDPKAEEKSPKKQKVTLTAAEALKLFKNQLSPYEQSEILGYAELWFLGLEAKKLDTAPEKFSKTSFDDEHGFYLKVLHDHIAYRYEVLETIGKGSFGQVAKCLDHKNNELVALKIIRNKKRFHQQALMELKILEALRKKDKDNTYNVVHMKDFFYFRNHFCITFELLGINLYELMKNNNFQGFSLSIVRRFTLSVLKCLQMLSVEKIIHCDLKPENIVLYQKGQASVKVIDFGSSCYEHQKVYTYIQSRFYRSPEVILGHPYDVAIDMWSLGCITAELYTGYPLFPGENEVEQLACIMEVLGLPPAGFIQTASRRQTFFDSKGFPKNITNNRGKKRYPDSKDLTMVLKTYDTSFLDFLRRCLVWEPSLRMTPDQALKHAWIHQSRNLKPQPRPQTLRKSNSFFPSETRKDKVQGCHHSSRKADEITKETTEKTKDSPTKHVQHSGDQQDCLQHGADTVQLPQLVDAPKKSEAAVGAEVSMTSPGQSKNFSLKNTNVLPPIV
Summary of the method: as §1

MARK2/PAR-1Ba = target: T5, MARK2/PAR-1Ba (Homo sapiens, UniProt Q7KZI7)
T5 construct: purchased Reaction Biology Corp
Summary of the method: as §1

MEK3 = target: T6, MEK3 (Homo sapiens, UniProt P46734)
T6 construct: purchased Reaction Biology Corp
T6 sequence (P46734 1-347): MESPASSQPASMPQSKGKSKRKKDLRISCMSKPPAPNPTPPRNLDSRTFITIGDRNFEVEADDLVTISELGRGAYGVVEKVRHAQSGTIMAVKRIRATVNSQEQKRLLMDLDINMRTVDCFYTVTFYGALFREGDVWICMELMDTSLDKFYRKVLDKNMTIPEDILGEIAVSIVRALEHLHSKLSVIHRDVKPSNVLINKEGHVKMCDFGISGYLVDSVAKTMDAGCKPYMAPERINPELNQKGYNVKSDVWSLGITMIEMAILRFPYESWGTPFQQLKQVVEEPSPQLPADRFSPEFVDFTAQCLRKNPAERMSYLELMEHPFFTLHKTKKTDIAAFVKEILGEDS
Summary of the method: as §1

MLK1/MAP3K9 = target: T7, MLK1/MAP3K9 (Homo sapiens, UniProt P80192)
T7 construct: purchased Reaction Biology Corp
Summary of the method: as §1

ROCK1 = target: T8, ROCK1 (Homo sapiens, UniProt Q13464)
T8 construct: purchased Reaction Biology Corp
Summary of the method: as §1

ROS/ROS1 = target: T9, ROS/ROS1 (Homo sapiens, UniProt P08922)
T9 construct: purchased Reaction Biology Corp
Summary of the method: as §1

STK33 = target: T10, STK33 (Homo sapiens, UniProt Q9BYT3)
T10 construct: purchased Reaction Biology Corp
Summary of the method: as §1

ULK3 = target: T11, ULK3 (Homo sapiens, UniProt Q6PHR2)
T11 construct: purchased Reaction Biology Corp
T11 sequence (Q6PHR2 1-472): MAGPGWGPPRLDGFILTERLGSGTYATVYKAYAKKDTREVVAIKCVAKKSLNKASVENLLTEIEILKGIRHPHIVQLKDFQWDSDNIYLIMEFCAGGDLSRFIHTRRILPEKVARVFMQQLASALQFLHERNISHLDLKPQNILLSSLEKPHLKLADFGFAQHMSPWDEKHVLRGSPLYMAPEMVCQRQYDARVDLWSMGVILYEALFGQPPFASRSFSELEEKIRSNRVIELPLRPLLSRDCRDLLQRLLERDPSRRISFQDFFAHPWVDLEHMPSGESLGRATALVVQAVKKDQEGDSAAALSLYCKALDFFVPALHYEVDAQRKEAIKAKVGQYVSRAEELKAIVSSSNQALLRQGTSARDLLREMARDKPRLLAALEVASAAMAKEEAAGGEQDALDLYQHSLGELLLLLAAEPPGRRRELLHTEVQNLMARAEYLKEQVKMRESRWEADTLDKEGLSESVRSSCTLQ
Summary of the method: as §1

[1] = read-out: % Enzyme Activity (relative to DMSO controls) Run 1
[2] = read-out: % Enzyme Activity (relative to DMSO controls) Run 2

T3 sequence (P41279 whole entry): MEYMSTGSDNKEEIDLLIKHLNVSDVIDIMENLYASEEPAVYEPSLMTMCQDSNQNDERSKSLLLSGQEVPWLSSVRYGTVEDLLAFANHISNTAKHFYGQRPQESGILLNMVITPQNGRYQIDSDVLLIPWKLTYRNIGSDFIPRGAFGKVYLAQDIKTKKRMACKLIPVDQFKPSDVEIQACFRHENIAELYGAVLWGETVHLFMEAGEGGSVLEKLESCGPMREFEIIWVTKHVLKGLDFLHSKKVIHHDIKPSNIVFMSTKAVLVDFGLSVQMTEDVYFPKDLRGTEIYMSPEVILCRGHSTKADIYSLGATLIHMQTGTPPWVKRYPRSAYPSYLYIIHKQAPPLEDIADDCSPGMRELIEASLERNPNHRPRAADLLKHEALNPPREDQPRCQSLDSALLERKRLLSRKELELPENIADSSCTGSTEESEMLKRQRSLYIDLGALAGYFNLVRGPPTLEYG
T7 sequence (P80192 whole entry): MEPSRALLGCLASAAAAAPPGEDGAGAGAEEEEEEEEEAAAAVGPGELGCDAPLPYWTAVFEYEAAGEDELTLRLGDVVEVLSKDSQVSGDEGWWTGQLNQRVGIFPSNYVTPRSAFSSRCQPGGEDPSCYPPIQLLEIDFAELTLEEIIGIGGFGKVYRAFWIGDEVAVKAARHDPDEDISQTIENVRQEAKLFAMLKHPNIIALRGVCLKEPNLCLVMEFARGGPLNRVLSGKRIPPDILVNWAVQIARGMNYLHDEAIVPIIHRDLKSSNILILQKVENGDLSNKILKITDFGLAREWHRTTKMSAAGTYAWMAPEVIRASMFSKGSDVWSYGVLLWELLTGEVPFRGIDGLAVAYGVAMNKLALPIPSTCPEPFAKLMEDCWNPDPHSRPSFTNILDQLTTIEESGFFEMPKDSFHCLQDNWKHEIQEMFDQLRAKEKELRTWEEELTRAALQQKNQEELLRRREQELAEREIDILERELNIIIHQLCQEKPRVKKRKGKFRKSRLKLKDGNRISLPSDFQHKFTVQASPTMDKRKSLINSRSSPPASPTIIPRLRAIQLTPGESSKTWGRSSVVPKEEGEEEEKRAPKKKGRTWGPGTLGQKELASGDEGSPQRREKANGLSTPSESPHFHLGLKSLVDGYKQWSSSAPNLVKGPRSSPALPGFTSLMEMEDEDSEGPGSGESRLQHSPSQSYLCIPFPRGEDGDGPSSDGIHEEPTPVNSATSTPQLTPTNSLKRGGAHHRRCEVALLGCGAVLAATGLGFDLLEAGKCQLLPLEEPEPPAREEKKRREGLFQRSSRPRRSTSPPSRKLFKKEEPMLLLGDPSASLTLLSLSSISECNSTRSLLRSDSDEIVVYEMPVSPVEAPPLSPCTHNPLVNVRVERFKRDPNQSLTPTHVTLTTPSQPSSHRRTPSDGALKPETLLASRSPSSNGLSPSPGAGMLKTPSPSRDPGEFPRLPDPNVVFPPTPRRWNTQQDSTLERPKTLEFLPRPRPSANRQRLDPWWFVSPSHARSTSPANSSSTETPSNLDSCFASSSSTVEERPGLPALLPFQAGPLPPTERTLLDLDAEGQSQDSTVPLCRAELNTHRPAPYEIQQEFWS
T1 sequence (P31749 whole entry): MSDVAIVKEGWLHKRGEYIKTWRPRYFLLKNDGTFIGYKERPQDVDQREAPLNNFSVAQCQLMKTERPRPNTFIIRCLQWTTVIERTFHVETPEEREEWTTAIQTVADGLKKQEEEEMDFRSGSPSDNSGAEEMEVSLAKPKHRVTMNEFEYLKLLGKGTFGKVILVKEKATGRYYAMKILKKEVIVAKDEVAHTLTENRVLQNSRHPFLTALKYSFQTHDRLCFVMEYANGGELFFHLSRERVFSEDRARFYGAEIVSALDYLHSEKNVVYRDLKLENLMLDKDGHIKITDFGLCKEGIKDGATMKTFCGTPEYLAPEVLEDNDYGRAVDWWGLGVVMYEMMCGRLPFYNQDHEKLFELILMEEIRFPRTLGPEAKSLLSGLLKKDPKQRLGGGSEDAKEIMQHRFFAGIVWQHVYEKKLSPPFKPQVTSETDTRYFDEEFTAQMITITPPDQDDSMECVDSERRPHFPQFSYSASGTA
T2 sequence (P06493 whole entry): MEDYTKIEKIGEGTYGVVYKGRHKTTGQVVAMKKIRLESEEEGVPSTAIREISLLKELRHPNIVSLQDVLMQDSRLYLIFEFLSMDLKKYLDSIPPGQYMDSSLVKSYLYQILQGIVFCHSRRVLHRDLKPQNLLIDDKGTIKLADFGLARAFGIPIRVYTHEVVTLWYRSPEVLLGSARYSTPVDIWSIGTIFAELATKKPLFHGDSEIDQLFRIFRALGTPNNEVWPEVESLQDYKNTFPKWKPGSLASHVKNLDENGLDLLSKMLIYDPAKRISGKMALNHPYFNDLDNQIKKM
T2 sequence (P14635 whole entry partner): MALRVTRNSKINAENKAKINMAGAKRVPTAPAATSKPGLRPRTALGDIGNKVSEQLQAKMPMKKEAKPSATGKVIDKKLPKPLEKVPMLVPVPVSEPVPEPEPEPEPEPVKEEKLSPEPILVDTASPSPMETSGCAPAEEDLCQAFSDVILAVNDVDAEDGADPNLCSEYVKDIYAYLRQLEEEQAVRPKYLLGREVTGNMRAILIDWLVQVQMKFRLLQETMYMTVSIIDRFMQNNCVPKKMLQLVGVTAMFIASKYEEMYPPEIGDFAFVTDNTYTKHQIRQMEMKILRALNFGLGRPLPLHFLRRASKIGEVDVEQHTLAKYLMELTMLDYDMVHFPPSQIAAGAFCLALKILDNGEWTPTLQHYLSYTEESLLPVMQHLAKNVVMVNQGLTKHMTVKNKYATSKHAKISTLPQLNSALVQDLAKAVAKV
T5 sequence (Q7KZI7 1-725 isoform Q7KZI7-4): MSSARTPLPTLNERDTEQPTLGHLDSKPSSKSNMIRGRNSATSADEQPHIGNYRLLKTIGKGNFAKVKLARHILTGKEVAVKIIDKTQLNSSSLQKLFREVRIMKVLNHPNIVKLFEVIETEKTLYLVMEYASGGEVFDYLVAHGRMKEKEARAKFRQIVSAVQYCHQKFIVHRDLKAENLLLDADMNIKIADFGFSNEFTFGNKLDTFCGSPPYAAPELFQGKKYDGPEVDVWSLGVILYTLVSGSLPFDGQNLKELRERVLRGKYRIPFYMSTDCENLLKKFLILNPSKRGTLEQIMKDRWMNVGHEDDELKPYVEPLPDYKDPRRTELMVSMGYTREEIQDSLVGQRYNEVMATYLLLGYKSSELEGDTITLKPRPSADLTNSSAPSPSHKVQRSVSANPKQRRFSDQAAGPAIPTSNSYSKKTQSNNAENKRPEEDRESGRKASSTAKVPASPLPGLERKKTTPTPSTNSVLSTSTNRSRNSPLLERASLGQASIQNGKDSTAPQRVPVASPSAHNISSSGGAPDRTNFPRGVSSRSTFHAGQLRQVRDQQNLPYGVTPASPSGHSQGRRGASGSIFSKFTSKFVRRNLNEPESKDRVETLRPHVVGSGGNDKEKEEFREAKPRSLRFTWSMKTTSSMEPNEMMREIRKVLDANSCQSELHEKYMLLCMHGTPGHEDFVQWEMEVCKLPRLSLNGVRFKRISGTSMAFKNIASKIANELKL
T10 sequence (Q9BYT3 whole entry): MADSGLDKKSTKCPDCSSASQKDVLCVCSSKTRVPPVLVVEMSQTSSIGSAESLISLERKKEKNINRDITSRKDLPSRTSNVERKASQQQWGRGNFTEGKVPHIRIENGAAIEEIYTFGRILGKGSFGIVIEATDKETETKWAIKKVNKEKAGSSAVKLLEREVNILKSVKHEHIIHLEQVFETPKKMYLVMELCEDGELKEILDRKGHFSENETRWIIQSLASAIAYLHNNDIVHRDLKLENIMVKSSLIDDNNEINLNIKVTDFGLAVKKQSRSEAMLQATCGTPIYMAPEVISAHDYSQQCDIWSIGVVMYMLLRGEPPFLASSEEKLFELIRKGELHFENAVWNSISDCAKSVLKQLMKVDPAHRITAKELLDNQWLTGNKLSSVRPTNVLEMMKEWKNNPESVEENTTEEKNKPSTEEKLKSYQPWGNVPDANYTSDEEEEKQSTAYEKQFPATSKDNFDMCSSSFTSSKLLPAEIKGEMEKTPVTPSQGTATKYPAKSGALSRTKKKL

Structure (SMILES): C=CC(=O)Nc1cccc(Nc2nc(Nc3ccc(OCCOC)c(F)c3)ncc2F)c1 [Compound 2]
- inhibition at 3 µM (AKT1): 5.87%
- remaining activity at 3 µM (AKT1; [1]): 95.1%
- remaining activity at 3 µM (AKT1; [2]): 93.1%
- inhibition at 3 µM (CDK1/cyclin B): 12.9%
- remaining activity at 3 µM (CDK1/cyclin B; [1]): 87.2%
- remaining activity at 3 µM (CDK1/cyclin B; [2]): 87%
- inhibition at 3 µM (COT1/MAP3K8): -1.33%
- remaining activity at 3 µM (COT1/MAP3K8; [1]): 102%
- remaining activity at 3 µM (COT1/MAP3K8; [2]): 101%
- inhibition at 3 µM (DYRK4): -5.35%
- remaining activity at 3 µM (DYRK4; [1]): 105%
- remaining activity at 3 µM (DYRK4; [2]): 106%
- inhibition at 3 µM (MARK2/PAR-1Ba): 1.3%
- remaining activity at 3 µM (MARK2/PAR-1Ba; [1]): 99.6%
- remaining activity at 3 µM (MARK2/PAR-1Ba; [2]): 97.8%
- inhibition at 3 µM (MEK3): -15.3%
- remaining activity at 3 µM (MEK3; [1]): 117%
- remaining activity at 3 µM (MEK3; [2]): 113%
- inhibition at 3 µM (MLK1/MAP3K9): 85.7%
- remaining activity at 3 µM (MLK1/MAP3K9; [1]): 14.5%
- remaining activity at 3 µM (MLK1/MAP3K9; [2]): 14.1%
- inhibition at 3 µM (ROCK1): -6.39%
- remaining activity at 3 µM (ROCK1; [1]): 108%
- remaining activity at 3 µM (ROCK1; [2]): 105%
- inhibition at 3 µM (ROS/ROS1): 86.6%
- remaining activity at 3 µM (ROS/ROS1; [1]): 13.5%
- remaining activity at 3 µM (ROS/ROS1; [2]): 13.3%
- inhibition at 3 µM (STK33): 48.1%
- remaining activity at 3 µM (STK33; [1]): 51.2%
- remaining activity at 3 µM (STK33; [2]): 52.5%
- inhibition at 3 µM (ULK3): 21.7%
- remaining activity at 3 µM (ULK3; [1]): 79.6%
- remaining activity at 3 µM (ULK3; [2]): 77%
